# Reference: article PMC4412257, “2′,6′-Dimethylphenylalanine: A Useful Aromatic Amino Acid Surrogate for Tyr or Phe Residue in Opioid Peptides” (International Journal of Medicinal Chemistry, 2012)
# Where two headings read alike, the source gives them in different places.
# Legend:
# [1] = system: mice; design: method as in PMID 12657261; details: formalin test in mice, subcutaneous injection, cited from earlier work
# [2] = system: GPI (μ): guinea pig ileum, predominantly μ-receptors; details: cited from earlier work
# [3] = target: δ-opioid receptor; details: versus [3H]DT, read-out: Receptor binding affinity, Ki ± S.E., δ, cited from earlier work
# [4] = system: δ-opioid receptor; experiment: δ-opioid receptor binding, brain homogenate, versus [3H]DT; design: species or system rat; details: ratio of Ki values
# Experimental: The receptor-binding affinities of synthetic analogs were determined using rat brain, as previously reported [45].
# [5] = target: MVD (δ): mouse vas deferens, δ-receptors; details: cited from earlier work; for Ke of CTAP against the peptide, MVD: antagonist CTAP (μ); for Ke of CTAP against the peptide, MVD / Ke of N,N(Me)2Dmt-Tic-OH against the peptide, MVD: MVD assay; for Ke of N,N(Me)2Dmt-Tic-OH against the peptide, MVD: antagonist N,N(Me)2Dmt-Tic-OH (δ)
# [6] = system: MVD (δ): mouse vas deferens, δ-receptors; experiment: isolated mouse vas deferens (MVD) assay; type: cell-based; details: ratio of IC50 values
# Experimental: (§1) The receptor-binding affinities of synthetic analogs were determined using rat brain, as previously reported. […] The GPI tissue contains predominantly μ-receptors, while MVD tissue contains δ-receptors. […] In contrast, 11 was devoid of activity in both assays, as expected from the binding data. […] This analog turned out to be a potent μ-antagonist and a weak δ-antagonist. […] The results of 13 are in line with observations that Dmt-D-Phe-NH2 and its C-terminally extended analog are μ-receptor antagonists.
# [7] = target: μ-opioid receptor; details: versus [3H]DAMGO, read-out: Receptor binding affinity, Ki ± S.E., μ, cited from earlier work
# [8] = system: μ-opioid receptor; experiment: μ-opioid receptor binding, brain homogenate, versus [3H]DAMGO; design: species or system rat; details: ratio of Ki values
# Experimental: as §1
# Two methyl groups on Dmp^4 may interfere with the receptor interaction due to a reduction in conformational flexibility and/or enhanced lipophilicity. To further examine the usefulness of Dmp-containing DYN peptides as κ-opioid receptor ligands, the in vitro bioactivity of DYN peptides was determined using the GPI assay (Table 5).
# [9] = system: GPI (μ): guinea pig ileum, predominantly μ-receptors; experiment: isolated guinea pig ileum (GPI) assay; type: cell-based; details: ratio of IC50 values
# Experimental: as §1
Compound,IC50 ([2]; Table 1) [nM],IC50 ([2]; Table 6) [nM],"Ki ([3]; Table 1, rat brain) [nM]",Ki ([3]; Table 6) [nM],IC50 ([5]; Table 1) [nM],IC50 ([5]; Table 6) [nM],"Ki ([7]; Table 1, rat brain) [nM]",Ki ([7]; Table 6) [nM],further results
"CN1CC[C@]23c4c5ccc(O)c4O[C@H]2[C@@H](O)C=C[C@H]3[C@H]1C5 [Morphine, reference compound]",–,–,–,–,–,–,–,–,"ED50, First phase ([1]; first phase): 3811 nmol/kg; ED50, Second phase ([1]; second phase): 7319 nmol/kg"
"Tyr-D-Ala-Phe-Glu-Val-Val-Gly-NH2 [DT, reference compound]",5440 ± 812,5440 ± 812,0.0226 ± 0.0077,0.0226 ± 0.0077,0.582 ± 0.029,0.582 ± 0.029,314 ± 53,314 ± 53,"μ/δ ([4]; Table 1): 13894; Ke of CTAP against the peptide, MVD [5]: >1000 nM; Ke of N,N(Me)2Dmt-Tic-OH against the peptide, MVD [5]: 0.64 nM; GPI/MVD ([6]; Table 1): 9342"
"Tyr-D-Ala-Phe-Gly-Tyr-Pro-Ser-NH2 [DM, reference compound]",3.74 ± 0.57,–,192 ± 51,–,34.4 ± 4.8,–,0.092 ± 0.024,–,δ/μ ([8]; Table 1): 2087; MVD/GPI ([9]; Table 1): 9.2
"Tyr-Gly-Gly-Phe-Leu [ENK, reference compound]",103 ± 30,103 ± 30,–,–,22.2 ± 4.3,22.2 ± 4.3,–,–,–
[D-Dmp^1]EM2 [compound 39],–,1390 ± 221,–,9710 ± 3820,–,2330 ± 943,–,40.4 ± 2.6,δ/μ ([8]; Table 6): 241
[D-Dmp^1]YRFB [compound 41],–,320 ± 30,–,> 2820,–,1470 ± 283,–,7.62 ± 1.75,δ/μ ([8]; Table 6): >370; MVD/GPI ([9]; Table 6): 4.6
[D-Dmp^3]DM [compound 19],44.4 ± 6.1,–,3300 ± 702,–,358 ± 45,–,4.43 ± 1.85,–,δ/μ ([8]; Table 1): 745; MVD/GPI ([9]; Table 1): 8.1
[D-Dmp^3]DT [compound 21],8210 ± 872,–,111 ± 17,–,145 ± 15,–,1960 ± 177,–,μ/δ ([4]; Table 1): 18; GPI/MVD ([6]; Table 1): 56
[D-Dmp^3]EM2 [compound 15],30.4 ± 2.8,–,4170 ± 954,–,187 ± 30,–,2.4 ± 0.56,–,δ/μ ([8]; Table 1): 1737; MVD/GPI ([9]; Table 1): 6.15
[D-Dmp^3]YRFB [compound 23],19.8 ± 1.9,–,> 2820,–,305 ± 53,–,0.0618 ± 0.0109,–,δ/μ ([8]; Table 1): >45679; MVD/GPI ([9]; Table 1): 15.4
[D-Dmp^4]EM2 [compound 17],587 ± 119,–,1760 ± 834,–,2270 ± 603,–,106 ± 20,–,δ/μ ([8]; Table 1): 17; MVD/GPI ([9]; Table 1): 3.86
[D-Dmp^4]ENK [compound 11],> 10000,–,8920 ± 4100,–,> 10000,–,2500 ± 169,–,μ/δ ([4]; Table 1): 0.28
[D-Dmp^l]DT [compound 35],–,> 10000,–,1390 ± 495,–,662 ± 147,–,> 2180,–
"[Dmp^1,3]YRFB [compound 25]",–,2.76 ± 0.56,–,1690 ± 458,–,–,–,0.0216 ± 0.0062,"δ/μ ([8]; Table 6): 78148; Ke of CTAP against the peptide, GPI ([2]; antagonist CTAP (μ), GPI assay): 21.3 nM; MVD/GPI ([9]; Table 6): 18.2; Ke of CTAP against the peptide, MVD [5]: 10.2 nM; Ke of N,N(Me)2Dmt-Tic-OH against the peptide, MVD [5]: >1000 nM"
[Dmp^1]DT [compound 34],–,4040 ± 1120,–,0.329 ± 0.077,–,0.272 ± 0.054,–,156 ± 33,μ/δ ([4]; Table 6): 475
[Dmp^1]EM2 [compound 38],–,76.9 ± 20.7,–,6760 ± 590,–,661 ± 316,–,2.48 ± 1.46,δ/μ ([8]; Table 6): 2727; MVD/GPI ([9]; Table 6): 8.61
[Dmp^1]ENK [compound 32],–,710 ± 69,–,1.86 ± 0.61,–,66.6 ± 12.7,–,5.94 ± 1.45,μ/δ ([4]; Table 6): 3.19; GPI/MVD ([6]; Table 6): 10.66
